According to US8778975B2, “Helicobacter pylori eradicating agent having inhibitory activity on gastric acid secretion” (Link Geonomics, Inc., priority 2006, dated 2014):
Values after ≈ are worked out from the molar mass of the structure shown. Values joined by “and” are separate entries in the source; they are usually repeats but may differ in a detail not shown here. Identical values can stand only once. Like-named read-outs stand apart in the source and are kept apart here.

Columns and labels:
[1] = system: clinically separated clarithromycin-resistant strains and amoxicillin-insensitive strains of Helicobacter pylori; assay: Antibacterial potency (MIC) against clarithromycin-resistant and amoxicillin-insensitive strains, Pharmacological Test Example 3; assay type: cell-based; conditions: Helicobacter pylori, read-out: MIC
Experimental: A test was conducted on the antibacterial potency of the compounds of the present invention against the clarithromycin-resistant strains and amoxicillin-insensitive strains of the bacterium Helicobacter pylori.
A test was conducted on the antibacterial potency of the compounds of the present invention, using clinically separated clarithromycin-resistant strains and amoxicillin-insensitive strains of the bacterium Helicobacter pylori. For the respective strains, in vitro tests were performed in Columbia agar medium. Each of the specimens was dissolved in a 1% DMSO solution. The bacteria were cultured at 37° C. and pH 7.0 for 3 days, and on the 4th day, the minimum growth inhibitory concentration (MIC, μg/ml) was determined.

[2] = system: Helicobacter pylori standard strain ATCC 43504; assay: Antibacterial potency test (MIC), Columbia agar medium, Pharmacological Test Example 1; assay type: cell-based
Experimental: A test was conducted to see whether there is a difference in the anti-Helicobacter pylori activity depending on the number of carbon atoms of the linear alkyl group for a substituent at the 4-position of the pyridine ring.
For the bacterium Helicobacter pylori, a standard strain ATCC 43504 was used to perform in vitro tests in Columbia agar medium. Each of the specimens was dissolved in a 1% DMSO solution, and the bacteria were cultured at 37° C. and pH 7.0 for 3 days. On the 4th day, the minimum growth inhibitory concentration (MIC, μg/ml) was determined.

[3] = system: Streptococcus pneumonia (ATCC 6301); assay: Antibacterial test (MIC), Gram-positive bacteria; assay type: cell-based; conditions: Streptococcus pneumoniae, ATCC6301
Excerpt: (§1) As for the Gram-negative bacteria, E. coli (ATCC 10536, ATCC 25922), Klebsiella pneumonia (ATCC 10031), Proteus vulgaris (ATCC 13315), Pseudomonas aeruginosa (ATCC 9027), and Salmonella typhimurium (ATCC 13311) were used, and as for the Gram-positive bacteria, Staphylococcus aureus, MRSA (ATCC 33591), Staphylococcus epidermidis (ATCC 12228), Streptococcus pneumonia (ATCC 6301), Mycobacterium ranae (ATCC 110), and Enterococcus faecalis (VRE, ATCC 51575) were used. The various bacteria were cultured at 37° C. for 20 to 48 hours by conventional methods, and the minimum growth inhibitory concentration (MIC, μg/ml) was determined. Each of the specimens was dissolved in a 1% DMSO solution. Furthermore, amoxicillin, clarithromycin and gentamycin were used as control drugs of antibacterial substance.

[4] = system: Mycobacterium ranae (ATCC 110); assay: Antibacterial test (MIC), Gram-positive bacteria; assay type: cell-based; conditions: ATCC110, read-out: MIC
Excerpt: as §1

[5] = system: Enterococcus faecalis (VRE, ATCC 51575); assay: Antibacterial test (MIC), Gram-positive bacteria; assay type: cell-based
Excerpt: as §1

[6] = system: Staphylococcus aureus, MRSA (ATCC 33591); assay: Antibacterial test (MIC), Gram-positive bacteria; assay type: cell-based; conditions: read-out: MIC
Excerpt: as §1

[7] = system: Staphylococcus epidermidis (ATCC 12228); assay: Antibacterial test (MIC), Gram-positive bacteria; assay type: cell-based; conditions: ATCC12228, read-out: MIC
Excerpt: as §1

[8] = system: gastric acid secretion; assay: Gastric acid secretion inhibiting action, pylorus ligation in rats; assay type: in vivo, SD rats; conditions: 30 mg/kg to the duodenum, 4 hours after pylorus ligation, average
Experimental: The gastric acid secretion inhibiting action of the compounds of the present invention was tested. A group of five animals of male SD rats (about 200 g) were used, and the medicaments were respectively dissolved in 0.5% CMC and were all administered to the duodenum respectively at 30 mg/kg. The rats were fasted overnight from the day before the administration of the test substance to the point of administration, and pylorus ligation was performed.

[9] = Stability test in acidic hydrochloric acid solution (pH 2), residual ratio by HPLC; assay type: physicochemical; conditions: for Residual ratio at pH 2: pH 2 HCl, 37° C.; for Stability in acid (residual ratio at pH = 2: %): Table 8 summary, time not stated
Experimental: A test for the stability of thioether compounds (hereinafter, referred to SH-form) and sulfoxide compounds (hereinafter, referred to SO-form) at pH 2.0 was carried out. (Method) Each of the specimens produced in Examples 1 to 3 and Reference Examples 6 to 8 (sulfinyl products of Examples 1 to 3) was maintained in a solution adjusted to pH 2 with 0.5 or 1.0 mmol/L HCl (37° C.) for a predetermined time period. Subsequently, the solution was adjusted to pH 8 with triethylamine, and then an HPLC analysis was performed to calculate the residual ratio.

[10] = system: Escherichia coli (ATCC 25922); assay: Antibacterial test (MIC), Gram-negative bacteria; assay type: cell-based; conditions: ATCC25922, read-out: MIC
Excerpt: as §1

[11] = system: Escherichia coli (ATCC 10536); assay: Antibacterial test (MIC), Gram-negative bacteria; assay type: cell-based; conditions: ATCC10536, read-out: MIC
Excerpt: as §1

[12] = system: Pseudomonas aeruginosa (ATCC 9027); assay: Antibacterial test (MIC), Gram-negative bacteria; assay type: cell-based; conditions: ATCC9027, read-out: MIC
Excerpt: as §1

[13] = system: Klebsiella pneumonia (ATCC 10031); assay: Antibacterial test (MIC), Gram-negative bacteria; assay type: cell-based; conditions: Klebsiella pneumoniae, ATCC10031, read-out: MIC
Excerpt: as §1

[14] = system: Salmonella typhimurium (ATCC 13311); assay: Antibacterial test (MIC), Gram-negative bacteria; assay type: cell-based; conditions: Salmonella enterica, read-out: MIC
Excerpt: as §1

[15] = system: Proteus vulgaris (ATCC 13315); assay: Antibacterial test (MIC), Gram-negative bacteria; assay type: cell-based; conditions: ATCC13315, read-out: MIC
Excerpt: as §1

[16] = system: Helicobacter pylori bacteria (ATCC 43504); assay: Antiulcer action and bacteria eradicating action in Helicobacter pylori-infected Mongolian gerbils; assay type: in vivo; conditions: for Number of Bacteria (average) (log CFU): gastric mucosa; for responders at 30 mg/kg / responders at 10 mg/kg: Helicobacter pylori
Experimental: Mongolian gerbils were experimentally infected with Helicobacter pylori bacteria, and the antiulcer action and the Helicobacter pylori bacteria eradicating action of the compounds of the present invention were tested.
Male Mongolian gerbils (30 to 40 g), five animals in each group, were orally inoculated with Helicobacter pylori bacteria (ATCC 43504) at 1.6×10^7 CFU/0.5 ml/mouse, and bred for one week, and then drug was administered two times a day for two weeks. Thereafter, the […] were bred for three weeks, and then the rats were fasted for 18 hours and subjected to abdominal section, followed by autopsy. The severity of gastric ulcer, the number of Helicobacter pylori bacteria in the gastric mucosa, and the antibody titer were measured.

[17] = ATCC43504, 72 h, ATCC 43504, 37° C., pH 7.0, 3 days, read-out: MIC
[18] = ATCC43504, Table 8 summary, strain not stated, read-out: Anti-HP activity (MIC: μg/mL)
[19] = 30 mg/kg, two times a day for two weeks
[20] = ATCC43504, 336 h, 30 mg/kg, two times a day for two weeks, read-out: Eradication rate (%)
[21] = ATCC43504, Table 8, amount of administration (mg) 30, read-out: HP eradication based on Mongolian gerbil infection model: Eradication rate (%)

| SMILES | MIC ([1]; AMO-insensitive strain NO. 1) | MIC ([1]; AMO-insensitive strain NO. 2) | MIC ([1]; AMO-insensitive strain NO. 3) | MIC ([1]; AMO-insensitive strain NO. 4) | MIC ([1]; CAM-resistant strain NO. 1) | MIC ([1]; CAM-resistant strain NO. 2) | MIC ([1]; CAM-resistant strain NO. 3) | MIC ([1]; CAM-resistant strain NO. 4) | MIC [2, 17] | MIC [2, 18] | MIC [3] | MIC [4] | MIC [5] | MIC [6] | MIC [7] | Gastric acid secretion inhibiting action: Amount of gastric acid [8] | Gastric acid secretion inhibiting action: Amount of gastric acid secretion [8] | Gastric acid secretion inhibiting action: Total acidity [8] | Residual ratio at pH 2 ([9]; 0 min) | Residual ratio at pH 2 ([9]; 30 min) | other results |
| --- | --- | --- | --- | --- | --- | --- | --- | --- | --- | --- | --- | --- | --- | --- | --- | --- | --- | --- | --- | --- | --- |
| CCCCCCCOc1ccnc(CSc2nc3ccccc3[nH]2)c1C [Example 3, 2-[(4-n-heptyloxy-3-methylpyridin-2-yl)-methylthio]-1H-benzimidazole] | 0.12 µg/mL (≈ 0.325 µM) | 0.12 µg/mL (≈ 0.325 µM) | 0.12 µg/mL (≈ 0.325 µM) | 0.25 µg/mL (≈ 0.677 µM) | 0.1 µg/mL (≈ 0.271 µM) | 0.1 µg/mL (≈ 0.271 µM) | 0.1 µg/mL (≈ 0.271 µM) | 0.1 µg/mL (≈ 0.271 µM) | 0.1 µg/mL (≈ 0.271 µM) | 0.1 µg/mL (≈ 0.271 µM) | > 100 µg/mL | > 100 µg/mL | > 100 µg/mL | > 100 µg/mL | > 100 µg/mL | 44% | 70% | 44% | 100% | 100% | Residual ratio at pH 2 ([9]; 2 hours): 100%; Stability in acid (residual ratio at pH = 2: %) [9]: 100%; MIC [10]: > 100 µg/mL; MIC [11]: > 100 µg/mL; MIC [12]: > 100 µg/mL; MIC [13]: > 100 µg/mL; MIC [14]: > 100 µg/mL; MIC [15]: > 100 µg/mL; Antibody titer (average) ([16]; 30 mg/kg): 0.22; Number of Bacteria (average) (log CFU) ([16]; 30 mg/kg): <3 log CFU; Number of Ulcers discovered [16, 19]: 0/5; responders at 30 mg/kg [16, 20]: 100%; responders at 30 mg/kg [16, 21]: 100% |
| CCCCCOc1ccnc(CSc2nc3ccccc3[nH]2)c1C [Example 1, 2-[(4-n-pentyloxy-3-methylpyridin-2-yl)-methylthio]-1H-benzimidazole] | 0.06 µg/mL (≈ 0.176 µM) | 0.06 µg/mL (≈ 0.176 µM) | 0.06 µg/mL (≈ 0.176 µM) | 0.06 µg/mL (≈ 0.176 µM) | 0.06 µg/mL (≈ 0.176 µM) | 0.06 µg/mL (≈ 0.176 µM) | 0.06 µg/mL (≈ 0.176 µM) | 0.06 µg/mL (≈ 0.176 µM) | 0.1 µg/mL (≈ 0.293 µM) | 0.1 µg/mL (≈ 0.293 µM) | > 100 µg/mL | > 100 µg/mL | > 100 µg/mL | > 100 µg/mL | > 100 µg/mL | 57% | 82% | 60% | 100% | 100% | Residual ratio at pH 2 ([9]; 2 hours): 100%; Stability in acid (residual ratio at pH = 2: %) [9]: 100%; MIC [10]: > 100 µg/mL; MIC [11]: > 100 µg/mL; MIC [12]: > 100 µg/mL; MIC [13]: > 100 µg/mL; MIC [14]: > 100 µg/mL; MIC [15]: > 100 µg/mL; Antibody titer (average) ([16]; 10 mg/kg): 0.07; Number of Bacteria (average) (log CFU) ([16]; 10 mg/kg): <3 log CFU; Number of Ulcers discovered ([16]; 10 mg/kg, two times a day for two weeks): inhibited generation of ulcer and 0/5; Antibody titer (average) ([16]; 30 mg/kg): 0.05; Number of Bacteria (average) (log CFU) ([16]; 30 mg/kg): <3 log CFU; Number of Ulcers discovered [16, 19]: 0/5; responders at 10 mg/kg ([16]; ATCC43504, 336 h, 10 mg/kg, two times a day for two weeks, read-out: Eradication rate (%)): 100%; responders at 30 mg/kg [16, 20]: 100%; responders at 10 mg/kg ([16]; ATCC43504, Table 8, amount of administration (mg) 10, read-out: HP eradication based on Mongolian gerbil infection model: Eradication rate (%)): 100% |
| CCCCCCOc1ccnc(CSc2nc3ccccc3[nH]2)c1C [Example 2, 2-[(4-n-hexyloxy-3-methylpyridin-2-yl)-methylthio]-1H-benzimidazole] | 0.06 µg/mL (≈ 0.169 µM) | 0.12 µg/mL (≈ 0.338 µM) | 0.12 µg/mL (≈ 0.338 µM) | 0.12 µg/mL (≈ 0.338 µM) | 0.06 µg/mL (≈ 0.169 µM) | 0.06 µg/mL (≈ 0.169 µM) | 0.06 µg/mL (≈ 0.169 µM) | 0.06 µg/mL (≈ 0.169 µM) | 0.1 µg/mL (≈ 0.281 µM) | 0.1 µg/mL (≈ 0.281 µM) | > 100 µg/mL | > 100 µg/mL | > 100 µg/mL | > 100 µg/mL | > 100 µg/mL | 44% | 65% | 34% | 100% | 100% | Residual ratio at pH 2 ([9]; 2 hours): 100%; Stability in acid (residual ratio at pH = 2: %) [9]: 100%; MIC [10]: > 100 µg/mL; MIC [11]: > 100 µg/mL; MIC [12]: > 100 µg/mL; MIC [13]: > 100 µg/mL; MIC [14]: > 100 µg/mL; MIC [15]: > 100 µg/mL; Antibody titer (average) ([16]; 30 mg/kg): 0.17; Number of Bacteria (average) (log CFU) ([16]; 30 mg/kg): <3 log CFU; Number of Ulcers discovered [16, 19]: 0/5; responders at 30 mg/kg [16, 20]: 100%; responders at 30 mg/kg [16, 21]: 100% |
